Assay results reported in US20240262727A1, “METHOD FOR IMPROVING BIOLOGICAL NITROGEN REMOVAL EFFECT OF LOW-TEMPERATURE SEWAGE” (Sichuan University, priority 2023, published 2024).

System: activated sludge
Test: Activated sludge SBR reactor, biological nitrogen removal with added AHLs signal molecule
Conditions: remaining steps as Example 1 (10° C.)

SMILES | ammonia-nitrogen removal efficiency (10 μg/L after addition) [%] | ammonia-nitrogen removal efficiency (100 μg/L after addition) [%]
CCCCCCCC(=O)N[C@H]1CCOC1=O [C8-HSL, N-octanoyl-L-homoserine lactone] | 88.37 | 94.54
CCCCCCCCCCCC(=O)N[C@H]1CCOC1=O [C12-HSL, N-dodecanoyl-L-homoserine lactone] | 90.79 | 80.95
